For this assay, the target named is T1, TRPC4 (Homo sapiens, UniProt Q9UBN4).
T1 construct: expressed in transfected cells; host or cells: HEK293 (inducible expression)
T1 sequence (Q9UBN4 1-977): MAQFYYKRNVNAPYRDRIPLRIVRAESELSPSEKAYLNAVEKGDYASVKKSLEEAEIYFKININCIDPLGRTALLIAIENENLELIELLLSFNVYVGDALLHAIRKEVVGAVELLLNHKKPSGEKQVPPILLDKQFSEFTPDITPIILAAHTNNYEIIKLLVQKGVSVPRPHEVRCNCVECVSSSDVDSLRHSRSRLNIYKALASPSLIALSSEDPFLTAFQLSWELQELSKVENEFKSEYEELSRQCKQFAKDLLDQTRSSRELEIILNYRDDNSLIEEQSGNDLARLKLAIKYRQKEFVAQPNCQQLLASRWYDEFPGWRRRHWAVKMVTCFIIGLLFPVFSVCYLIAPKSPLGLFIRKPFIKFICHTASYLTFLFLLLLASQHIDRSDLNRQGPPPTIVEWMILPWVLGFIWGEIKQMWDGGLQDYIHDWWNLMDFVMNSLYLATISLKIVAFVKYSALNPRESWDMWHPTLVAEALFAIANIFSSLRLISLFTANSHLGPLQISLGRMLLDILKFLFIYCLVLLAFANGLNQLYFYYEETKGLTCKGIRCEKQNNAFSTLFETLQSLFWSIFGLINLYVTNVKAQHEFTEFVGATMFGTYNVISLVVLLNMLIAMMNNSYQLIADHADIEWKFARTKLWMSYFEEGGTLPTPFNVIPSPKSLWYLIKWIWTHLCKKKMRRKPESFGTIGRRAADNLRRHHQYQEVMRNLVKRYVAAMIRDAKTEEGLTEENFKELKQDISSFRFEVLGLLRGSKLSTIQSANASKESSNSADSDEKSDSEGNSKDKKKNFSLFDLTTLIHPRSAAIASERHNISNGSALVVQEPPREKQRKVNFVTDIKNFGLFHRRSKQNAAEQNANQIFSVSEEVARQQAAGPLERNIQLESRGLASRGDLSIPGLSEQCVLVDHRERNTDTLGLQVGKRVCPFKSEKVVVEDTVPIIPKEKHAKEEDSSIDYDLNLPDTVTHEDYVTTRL
Put plainly: FLIPR Ca2+ influx measurement, trypsin-stimulated TRPC4 HEK293 cells. It counts as cell-based. The following applies: 200 nM trypsin. The source says: In general, cells are provided which express a TRPC channel. Such cells can be produced using genetic methods known to a person skilled in the art. After having induced the expression of the TRPC channel, cells are usually plated into e.g. microtiter plates and grown. Usually the cells grow at the bottom of multiwell plates and are fixed. Thereafter, the cells are generally washed and loaded with a dye in a suitable loading buffer, preferably with a fluorescent dye such as fluo4am. After having removed the loading buffer, the cells are incubated with the test compound or modulator, in particular with a biochemical or chemical test compound as described above, e.g. in the form of a chemical compound library. Ca^2+ measurements can be carried out using e.g. a Fluorescence Imaging Plate Reader (FLIPR). To stimulate Ca^2+ influx through the TRPC channel a channel activator such as OAG should generally be applied.
When these experiments were performed, no direct physiological stimuli of TRPC4 and TRPC5 were known. Therefore, both channels had to be stimulated indirectly, e.g. by application of trypsin, a protease-activated receptor (PAR) stimulating protease. […] Kinetics and quantity of calcium store release in cells treated with 30 μM norgestimate were not changed compared to untreated cells. […]

SMILES strings stand for the structures. Entries after “also recorded” stand apart in the source; their conditions may differ. Some results are limits rather than exact numbers.

Turning to `C#C[C@]1(OC(C)=O)CC[C@H]2[C@@H]3CCC4=C/C(=N/O)CC[C@@H]4[C@H]3CC[C@@]21CC` [norgestimate, D-17β-acetoxy-B-ethyl-17α ethinyl-gon-4-en-3-one oxime], the “inhibitory effect on TRPC4-mediated Ca2+ influx” value (30 μM norgestimate) is on record as “only small inhibitory effects; also recorded: slightly reduced”. The molecule also came in with an IC50 (FLIPR, n=2) greater than 30 µM.

The term IC50 denotes the concentration that inhibits the measured activity by half.
